According to BindingDB's records for doi:10.1016/j.bmc.2018.11.002 (2018):

What was measured:
[1] = Inhibition of mouse GAT3 expressed in HEK293 cells assessed as reduction in [3H]GABA uptake preincubated for 25 mins followed by [3H]GABA addition and measured after 4 mins by liquid scintillation counting method
[2] = Inhibition of mouse GAT2 expressed in HEK293 cells assessed as reduction in [3H]GABA uptake preincubated for 25 mins followed by [3H]GABA addition and measured after 4 mins by liquid scintillation counting method

| SMILES | IC50 [1] [µM] | IC50 [2] [µM] |
| --- | --- | --- |
| COc1ccc(C(/C=C/CN2CCCC(C(=O)O)C2)(c2ccc(OC)cc2)c2ccc3c(c2)OCO3)cc1 (stereo not given) | 10.2 |  |
| COc1ccc(C(C/C=C/CN2CCCC(C(=O)O)C2)(c2ccc(OC)cc2)c2ccc(OC)cc2)cc1 (stereo not given) | 85.1 |  |
| COc1ccc(C(/C=C/CN2CCCC(C(=O)O)C2)(c2ccc(OC)cc2)c2ccsc2)cc1 (stereo not given) | 42.7 |  |
| COc1ccc(C(/C=C/CN2CCCC(C(=O)O)C2)(c2ccc(OC)cc2)c2ccc3sccc3c2)cc1 (stereo not given) | 20 | 25.1 |
| COc1ccc(C(/C=C/CN2CCC[C@H](C(=O)O)C2)(c2ccc(OC)cc2)c2ccc3sccc3c2)cc1 |  | 23.4 |
| O=C(O)C1CCCN(C/C=C/C(c2ccc3occc3c2)(c2ccc3occc3c2)c2ccc3occc3c2)C1 (stereo not given) | 5.5 | 9.55 |
| O=C(O)C1CCCN(C/C=C/C(c2ccc3c(c2)OCO3)(c2ccc3c(c2)OCO3)c2ccc3c(c2)OCO3)C1 (stereo not given) | 24.5 | 89.1 |
| O=C(O)C1CCCN(C/C=C/C(c2ccc3sccc3c2)(c2ccc3sccc3c2)c2ccc3sccc3c2)C1 (stereo not given) | 52.5 | 33.9 |
| COc1ccc(C(/C=C/CN2CCCC(C(=O)O)C2)c2ccc(OC)cc2)cc1 (stereo not given) | 53.7 |  |
| Cc1ccc(C(/C=C/CN2CCCC(C(=O)O)C2)(c2ccc(C)cc2)c2ccc(C)cc2)cc1 (stereo not given) | 15.8 | 14.1 |
